Non-standard residues stand in square brackets, D forms with d. Residues, ends and D or L forms follow the SMILES beside them.
Key:
N87 cells = assay: In vitro toxicity assay using human gastric cells (resazurin); assay type: cell-based
Experimental: [26] Human gastric cells N87 (ATCC CRL-5822) were cultured in RPMI-1640 medium supplemented with 10% fetal calf serum (FCS), 1% L-glutamine and 1% antibiotics (all from Invitrogen, Carlsbad, CA, USA) and were routinely seeded onto 25 cm^2 flasks maintained in a 5% CO2 incubator at 37 °C. For the toxicity assay, cells grown on 25 cm^2 flasks were detached using trypsin–EDTA solution (from Thermofisher), counted using Mallasez counting chamber and seeded into 96-well cell culture plates (Greiner Bio-one) at approximately 10^4 cells per well. The cells were left to grow for 48–72 h at 37 °C in a 5% CO2 incubator until they reached confluence. Plates were then aspirated and increasing concentrations of peptides were added to the cells for 48 h at 37 °C in a 5% CO2 incubator, volume of water corresponding to the volume of peptides being used as negative control. At the end of the incubation, wells were aspirated, and cell viability was evaluated using resazurin-based in vitro toxicity assay kit (Sigma-Aldrich) following manufacturer’s instructions. Briefly, resazurin stock solution was diluted 1:10 in sterile PBS containing calcium and magnesium (PBS^++, pH 7.4) and empty wells were filled with 100 µL of the diluted solution. After 4 h incubation at 37 °C, fluorescence intensity was measured using microplate reader (Synergy Mx, Biotek) with an excitation wavelength of 530 nm and an emission wavelength of 590 nm. The fluorescence values were normalized by the controls and expressed as percent viability.

human gastric explants = assay: Ex vivo toxicity assay, LDH release from human gastric explants; assay type: cell-based; settings: peptides 100 µM, CTAB 300 µM, % of total release
Experimental: To further evaluate the innocuity of the peptides, ex vivo experiments were performed using human explants as previously described. Briefly, human gastric tissue samples were obtained from patients undergoing surgery at the Hospital Laveran (Marseille, France), unit of gastrointestinal surgery according to a collaborative clinical transfer project. The procedures were approved by the French ethic committee (CODECOH n° DC-2019-3402). All patients agreed for the use of their tissues for research purposes. Samples were taken from healthy patients during sleeve gastrectomy from macroscopically unaffected area as identified by the surgeons. After resection, the specimens were placed in ice-cold oxygenated sterile DMEM solution containing 1% streptomycin/penicillin solution and 50 μg/mL gentamycin and were directly transferred to the laboratory within 15 min on ice. Gastric tissues were extensively washed and maintained in ice-cold culture media containing 1% streptomycin/penicillin solution and 50 μg/mL gentamycin. Tissues were cleaned from vascular vessels and conjunctive tissue using forceps under binocular microscope. Gastric explants (wet weight of 20–30 mg) were then isolated from the cleaned resections using surgical punch (diameter of 0.5 cm^2). […] Finally, the explants were washed three times with culture media without antibiotics and transferred into 24-well plates before being incubated in RPMI media without fetal bovine serum, antibiotics and phenol red at 37 °C in the 5% CO2 incubator with 100 µM of peptides for 2, 4 or 8 h. Phenol red was omitted from the culture media since it interferes with the lactate dehydrogenase (LDH) assay. The detergent cetyl-trimethylammonium bromide (CTAB) at 300 µM was used as positive control of tissue damages. At the end of the incubation, the explants were collected and washed three times with PBS^++ and were fixed overnight at 4 °C with PFA diluted at 4% in PBS. After that, gastric explants were washed twice with PBS and were included in an inclusion medium (TFM-EMS), in transverse position to allow cutting in the crypt-villosity axis using cryostat (Leica CM3050) (Leica Microsystems, Nanterre, France). Four sections of 5 µm thickness were obtained per explant, each section being separated by 100 µm from the next in order to cover all the tissue. Explants were then stained using hematoxylin and eosin (H&E) staining protocol. Briefly, samples were incubated for 8 min in hematoxylin (Sigma-Aldrich) and then allowed to stain by incubation with water for 2 min. Then explants were incubated for 1 min in eosin (Sigma-Aldrich) and then in water for 1 min. This was followed by incubation of explants with ethanol at concentration of 70% then 95% and finally 100% for 2 min each. After blotting excess ethanol, gastric explants were incubated for 15 min with xylene and mounted with coverslip using Eukitt mounting media (EMS, Hatfield, PA, USA). Finally, explants were left overnight to dry before examination of tissue organization under the microscope (Leitz DMRB microscope (Leïca), equipped with Leïca DFC 450C camera). Quantification of the release of LDH was also used in addition to microscopic observations to evaluate the impact of peptides on human gastric explants. Briefly, after 2, 4 or 8 h of incubation of the explants with the peptides, the supernatants of the wells were collected and stored at -80 °C before the LDH assay. The LDH activity was measured using previously described protocol with minor changes. Briefly, 50 µL of supernatants obtained from explants were mixed with 200 µL of Tris-Lactate buffer (containing Tris HCl at 86 mM, L-Lactate at 56 mM and KCl at 172 mM, pH 9.3, all from Sigma-Aldrich) and 20 µL of NAD (at 172 mM, Sigma-Aldrich) into well of 96-wells plates. Increase in OD339nm was then measured at 30 °C after 0, 1, 5, and 10 min using microplate reader (Synergy Mx, Biotek). […]

CC[C@H](C)[C@H](NC(=O)CNC(=O)[C@H](CO)NC(=O)[C@H](CC(C)C)NC(=O)[C@@H](N)Cc1ccccc1)C(=O)N[C@H](C(=O)NCC(=O)N[C@@H](CCSC)C(=O)N[C@@H](CC(C)C)C(=O)N[C@H](C)C(=O)N[C@@H](CCCCN)C(=O)N[C@@H](CC(C)C)C(=O)N[C@@H](Cc1ccccc1)C(N)=O)C(C)C [NST1, H-Phe^1-Leu^2-Ser^3-Gly^4-Ile^5-Val^6-Gly^7-Met^8-Leu^9-D-Ala^10-Lys^11-Leu^12-Phe^13-NH2] (H-FLSGIVGML[dA]KLF-NH2)
IC50 (N87 cells; 48 h incubation, resazurin cell viability, read-out: IC50 on N87 Cells): 90.4 ± 10.4 µM
increase in toxicity to human gastric cells compared to temporin-SHa (N87 cells; from IC50 on N87 cells): ~17 fold
LDH release (human gastric explants; 2 h): 8.3%
LDH release (human gastric explants; 4 h): 12.0%
LDH release (human gastric explants; 8 h): 25.0%

Source: PMC6843786, “Temporin-SHa and Its Analogs as Potential Candidates for the Treatment of Helicobacter pylori” (Biomolecules, 2019)
